# Laboratory results taken from ChEMBL document CHEMBL1157309, “Sensitivity of cardiac background inward rectifying K+ outward current (IK1) to the alkaloids lepadiformines A, B, and C” (J Nat Prod, 2006).
# Structures can show the parent of a compound that is named as a salt. Calls of active or inactive are those of the source. The rule behind the calls is not given here.
# Experiments:
# [1] = Inhibition of Kir channel in frog sino-atrial myocytes assessed as half-maximal response for blockade of barium and caesium-sensitive inward rectifying potassium outward current by whole cell patch clamp method; type: cell-based, Pelophylax lessonae, Cardiac atrium
# [2] = test system: Pelophylax lessonae; assay: Inhibition of Kir channel in frog sino-atrial myocytes assessed as blockade of barium and caesium-sensitive inward rectifying potassium outward current potential at 4.1 uM by whole cell patch clamp method; type: cell-based; conditions: Cardiac atrium
# [3] = test system: Pelophylax lessonae; assay: Inhibition of Kir channel in frog sino-atrial myocytes assessed as blockade of barium and caesium-sensitive inward rectifying potassium outward current potential at 2.5 uM by whole cell patch clamp method; type: cell-based; conditions: Cardiac atrium
# [4] = test system: Pelophylax lessonae; assay: Inhibition of Kir channel in frog sino-atrial myocytes assessed as blockade of barium and caesium-sensitive inward rectifying potassium outward current by whole cell patch clamp method; type: cell-based; conditions: Cardiac atrium
# [5] = test system: Pelophylax lessonae; assay: Inhibition of Kir channel in frog sino-atrial myocytes assessed as blockade of barium and caesium-sensitive inward rectifying potassium outward current at 1.6 uM by whole cell patch clamp method; type: cell-based; conditions: Cardiac atrium
# [6] = test system: Pelophylax lessonae; assay: Inhibition of Kir channel in frog sino-atrial myocytes assessed as blockade of barium and caesium-sensitive inward rectifying potassium outward current potential at 3.3 uM by whole cell patch clamp method; type: cell-based; conditions: Cardiac atrium
SMILES,Kd [1] [nM],Activity [2],inhibition [3] [%],Activity [4],Activity [5],Activity [6]
CCCC[C@@H]1CC[C@@H]2CCCC[C@]23CC[C@@H](CO)N13 [LEPADIFORMINE B HYDROCHLORIDE],1560,Active,54,–,–,–
CCCCCC[C@@H]1CC[C@@H]2CCCC[C@]23CC[C@@H](CO)N13 [LEPADIFORMINE A HYDROCHLORIDE],1420,–,–,Dose-dependent effect,Active,–
CCCC[C@@H]1CC[C@@H]2CCCC[C@]23CCCN13,–,–,8.4,–,–,inactive
